The source of these data is ChEMBL document CHEMBL1153608, “Synthesis, antimalarial evaluation and molecular modeling studies of hydroxyethylpiperazines, potential aspartyl protease inhibitors, part 2” (Eur J Med Chem, 2009).

Some results are limits rather than exact numbers.

The first data set concerns Plasmodium falciparum. Put plainly: Antimalarial activity against Plasmodium falciparum W2 by [3H]hypoxanthine uptake. The class given is functional, organism-based.
Settings: not given
Compound `COc1ccc(S(=O)(=O)N[C@@H](Cc2ccccc2)[C@H](O)CN2CCN(Cc3ccc4c(c3)OCO4)CC2)cc1` showed an IC50 of 34.3 µM.
The compound `O=C(N[C@@H](Cc1ccccc1)[C@H](O)CN1CCN(Cc2ccc3c(c2)OCO3)CC1)c1c(Cl)cccc1Cl` showed a half-inhibitory concentration (IC50) of 55.5 µM.
On the same count and under the same terms, then `O=C(N[C@@H](Cc1ccccc1)[C@H](O)CN1CCN(Cc2ccc3c(c2)OCO3)CC1)c1ccccc1`, with 69.4 µM; and `O=C(N[C@@H](Cc1ccccc1)[C@H](O)CN1CCN(Cc2ccc3c(c2)OCO3)CC1)c1cc(Cl)cc(Cl)c1`, with 47.2 µM.
Still for that read-out and setting: then `Cc1ccc(S(=O)(=O)N[C@@H](Cc2ccccc2)[C@H](O)CN2CCN(Cc3ccc(N)cc3)CC2)cc1`, with more than 90 µM; and `O=C(N[C@@H](Cc1ccccc1)[C@H](O)CN1CCN(Cc2ccc3c(c2)OCO3)CC1)c1c(F)cccc1F`, with 47.4 µM; and `COc1ccc(CN2CCN(C[C@@H](O)[C@H](Cc3ccccc3)NS(=O)(=O)c3ccc(C)cc3)CC2)cc1OC`, with more than 90 µM.
Still for that read-out and setting: for `O=S(=O)(N[C@@H](Cc1ccccc1)[C@H](O)CN1CCN(Cc2ccc3c(c2)OCO3)CC1)c1ccc(F)cc1` the value was 42.5 µM; for `COc1ccc(CN2CCN(C[C@@H](O)[C@H](Cc3ccccc3)NS(=O)(=O)c3ccc(C)cc3)CC2)cc1`, more than 90 µM; for `Cc1ccc(S(=O)(=O)N[C@@H](Cc2ccccc2)[C@H](O)CN2CCN(Cc3ccc4c(c3)OCO4)CC2)cc1`, 16.9 µM.

Test system in another data set: not listed separately
Put plainly: Cytotoxicity against mouse J774 cells assessed as cell viability at 0.1 ug/mL after 24 hrs by MTT assay. The conditions noted are these: read-out: Activity. The class given is cell-based.
Consider `COc1ccc(S(=O)(=O)N[C@@H](Cc2ccccc2)[C@H](O)CN2CCN(Cc3ccc4c(c3)OCO4)CC2)cc1`, for which the viability at 24 h, 0.1 ug/mL is 100%.
As to `O=C(N[C@@H](Cc1ccccc1)[C@H](O)CN1CCN(Cc2ccc3c(c2)OCO3)CC1)c1c(Cl)cccc1Cl`, the viability at 24 h, 0.1 ug/mL was 100%.
Turning to `O=C(N[C@@H](Cc1ccccc1)[C@H](O)CN1CCN(Cc2ccc3c(c2)OCO3)CC1)c1ccccc1`, the viability at 24 h, 0.1 ug/mL stood at 100%.
Same read-out and setting: then `O=C(N[C@@H](Cc1ccccc1)[C@H](O)CN1CCN(Cc2ccc3c(c2)OCO3)CC1)c1cc(Cl)cc(Cl)c1`, with 98%.
The same measure, in the same setting: then `Cc1ccc(S(=O)(=O)N[C@@H](Cc2ccccc2)[C@H](O)CN2CCN(Cc3ccc(N)cc3)CC2)cc1`, with 100%; and `O=C(N[C@@H](Cc1ccccc1)[C@H](O)CN1CCN(Cc2ccc3c(c2)OCO3)CC1)c1c(F)cccc1F`, with 85%; and `COc1ccc(CN2CCN(C[C@@H](O)[C@H](Cc3ccccc3)NS(=O)(=O)c3ccc(C)cc3)CC2)cc1OC`, with 100%.
With `O=S(=O)(N[C@@H](Cc1ccccc1)[C@H](O)CN1CCN(Cc2ccc3c(c2)OCO3)CC1)c1ccc(F)cc1`, the viability at 24 h, 0.1 ug/mL is 100%.
With `COc1ccc(CN2CCN(C[C@@H](O)[C@H](Cc3ccccc3)NS(=O)(=O)c3ccc(C)cc3)CC2)cc1`, the viability at 24 h, 0.1 ug/mL came out at 100%.
`Cc1ccc(S(=O)(=O)N[C@@H](Cc2ccccc2)[C@H](O)CN2CCN(Cc3ccc4c(c3)OCO4)CC2)cc1`: the viability at 24 h, 0.1 ug/mL came out at 100%.

Test system in another data set: not listed separately
As to the kind of experiment: Cytotoxicity against mouse J774 cells assessed as cell viability at 1 ug/mL after 24 hrs by MTT assay. It is filed as cell-based. The conditions noted are these: read-out: Activity. (Formazan colour is commonly taken as a measure of viable cells.)
On to `COc1ccc(S(=O)(=O)N[C@@H](Cc2ccccc2)[C@H](O)CN2CCN(Cc3ccc4c(c3)OCO4)CC2)cc1`, for which the viability at 24 h, 1 ug/mL came to 99%.
For `O=C(N[C@@H](Cc1ccccc1)[C@H](O)CN1CCN(Cc2ccc3c(c2)OCO3)CC1)c1c(Cl)cccc1Cl`, the viability at 24 h, 1 ug/mL stood at 90%.
As for `O=C(N[C@@H](Cc1ccccc1)[C@H](O)CN1CCN(Cc2ccc3c(c2)OCO3)CC1)c1ccccc1`, the viability at 24 h, 1 ug/mL was determined as 100%.
Regarding `O=C(N[C@@H](Cc1ccccc1)[C@H](O)CN1CCN(Cc2ccc3c(c2)OCO3)CC1)c1cc(Cl)cc(Cl)c1`, the viability at 24 h, 1 ug/mL is 100%.
The same measure, in the same setting: for `Cc1ccc(S(=O)(=O)N[C@@H](Cc2ccccc2)[C@H](O)CN2CCN(Cc3ccc(N)cc3)CC2)cc1` the value was 90%; for `O=C(N[C@@H](Cc1ccccc1)[C@H](O)CN1CCN(Cc2ccc3c(c2)OCO3)CC1)c1c(F)cccc1F`, 87%.
On to `COc1ccc(CN2CCN(C[C@@H](O)[C@H](Cc3ccccc3)NS(=O)(=O)c3ccc(C)cc3)CC2)cc1OC`, for which the viability at 24 h, 1 ug/mL was 100%.
Take `O=S(=O)(N[C@@H](Cc1ccccc1)[C@H](O)CN1CCN(Cc2ccc3c(c2)OCO3)CC1)c1ccc(F)cc1`: the viability at 24 h, 1 ug/mL was found to be 94%.
On the same count and under the same terms, for `COc1ccc(CN2CCN(C[C@@H](O)[C@H](Cc3ccccc3)NS(=O)(=O)c3ccc(C)cc3)CC2)cc1` the value was 90%; for `Cc1ccc(S(=O)(=O)N[C@@H](Cc2ccccc2)[C@H](O)CN2CCN(Cc3ccc4c(c3)OCO4)CC2)cc1`, 100%.

Test system in another data set: not listed separately
Put plainly: Cytotoxicity against mouse J774 cells assessed as cell viability at 10 ug/mL after 24 hrs by MTT assay. The class given is cell-based. The conditions noted are these: read-out: Activity.
For `COc1ccc(S(=O)(=O)N[C@@H](Cc2ccccc2)[C@H](O)CN2CCN(Cc3ccc4c(c3)OCO4)CC2)cc1`, the viability at 24 h, 10 ug/mL stood at 90%.
On to `O=C(N[C@@H](Cc1ccccc1)[C@H](O)CN1CCN(Cc2ccc3c(c2)OCO3)CC1)c1c(Cl)cccc1Cl`, for which the viability at 24 h, 10 ug/mL came to 84%.
On to `O=C(N[C@@H](Cc1ccccc1)[C@H](O)CN1CCN(Cc2ccc3c(c2)OCO3)CC1)c1ccccc1`, for which the viability at 24 h, 10 ug/mL was determined as 91%.
The same measure, in the same setting: for `O=C(N[C@@H](Cc1ccccc1)[C@H](O)CN1CCN(Cc2ccc3c(c2)OCO3)CC1)c1cc(Cl)cc(Cl)c1` the value was 98%; for `Cc1ccc(S(=O)(=O)N[C@@H](Cc2ccccc2)[C@H](O)CN2CCN(Cc3ccc(N)cc3)CC2)cc1`, 77%.
As to `O=C(N[C@@H](Cc1ccccc1)[C@H](O)CN1CCN(Cc2ccc3c(c2)OCO3)CC1)c1c(F)cccc1F`, the viability at 24 h, 10 ug/mL worked out at 83%.
For `COc1ccc(CN2CCN(C[C@@H](O)[C@H](Cc3ccccc3)NS(=O)(=O)c3ccc(C)cc3)CC2)cc1OC`, the viability at 24 h, 10 ug/mL is 92%.
Same read-out and setting: then `O=S(=O)(N[C@@H](Cc1ccccc1)[C@H](O)CN1CCN(Cc2ccc3c(c2)OCO3)CC1)c1ccc(F)cc1`, with 83%.
Take `COc1ccc(CN2CCN(C[C@@H](O)[C@H](Cc3ccccc3)NS(=O)(=O)c3ccc(C)cc3)CC2)cc1`: the viability at 24 h, 10 ug/mL was found to be 84%.
With `Cc1ccc(S(=O)(=O)N[C@@H](Cc2ccccc2)[C@H](O)CN2CCN(Cc3ccc4c(c3)OCO4)CC2)cc1`, the viability at 24 h, 10 ug/mL amounted to 98%.

Test system in a further data set: not listed separately
Put plainly: Cytotoxicity against mouse J774 cells assessed as cell viability at 100 ug/mL after 24 hrs by MTT assay. The class given is cell-based. The conditions noted are these: read-out: Activity.
Turning to `COc1ccc(S(=O)(=O)N[C@@H](Cc2ccccc2)[C@H](O)CN2CCN(Cc3ccc4c(c3)OCO4)CC2)cc1`, the viability at 24 h, 100 ug/mL was 12%.
In the case of `O=C(N[C@@H](Cc1ccccc1)[C@H](O)CN1CCN(Cc2ccc3c(c2)OCO3)CC1)c1c(Cl)cccc1Cl`, the viability at 24 h, 100 ug/mL was 43%.
Consider `O=C(N[C@@H](Cc1ccccc1)[C@H](O)CN1CCN(Cc2ccc3c(c2)OCO3)CC1)c1ccccc1`, for which the viability at 24 h, 100 ug/mL came to 38%.
As for `O=C(N[C@@H](Cc1ccccc1)[C@H](O)CN1CCN(Cc2ccc3c(c2)OCO3)CC1)c1cc(Cl)cc(Cl)c1`, the viability at 24 h, 100 ug/mL was 93%.
On the same count and under the same terms, then `Cc1ccc(S(=O)(=O)N[C@@H](Cc2ccccc2)[C@H](O)CN2CCN(Cc3ccc(N)cc3)CC2)cc1`, with 10%; and `O=C(N[C@@H](Cc1ccccc1)[C@H](O)CN1CCN(Cc2ccc3c(c2)OCO3)CC1)c1c(F)cccc1F`, with 51%; and `COc1ccc(CN2CCN(C[C@@H](O)[C@H](Cc3ccccc3)NS(=O)(=O)c3ccc(C)cc3)CC2)cc1OC`, with 9%.
Same read-out and setting: then `O=S(=O)(N[C@@H](Cc1ccccc1)[C@H](O)CN1CCN(Cc2ccc3c(c2)OCO3)CC1)c1ccc(F)cc1`, with 4%.
For the compound `COc1ccc(CN2CCN(C[C@@H](O)[C@H](Cc3ccccc3)NS(=O)(=O)c3ccc(C)cc3)CC2)cc1`, the viability at 24 h, 100 ug/mL was 6%.
With `Cc1ccc(S(=O)(=O)N[C@@H](Cc2ccccc2)[C@H](O)CN2CCN(Cc3ccc4c(c3)OCO4)CC2)cc1`, the viability at 24 h, 100 ug/mL was found to be 49%.

Broadly, the IC50 is the concentration needed to halve the response being measured.
